Assay: recombinant barcode read abundance after kanamycin selection (control-corrected) (log10(CPM+1)); higher = more efficient recombination; sequences stand for … in AGTGCAGAGAAAATCGGCCAGTTTTCTCTGCCTGCAGTCCGCATGCCGT…AGATTTATGCAGCGGACTGCCTTTCTCCCAAAGTGATAAACCGGACAGTATCATGGACCGGTTTTCCCGGTAATCCGTATTTGCAAGGTTGGTTTCACT; site = the 11-nt target
In short: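 Duplicate cultures were plated either on chloramphenicol/ampicillin LB agar, serving as control, or on chloramphenicol/ampicillin/kanamycin with 0.1 mM IPTG. These came from a pooled E. coli library co-electroporated with a donor plasmid, each member pairing a target with an IS621 bridge RNA target-binding loop. Recombination efficiency equals averaged, control-corrected counts per million of recombinant-junction barcodes. It is listed as log10(CPM+1).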
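Further: IS621 recombinase and bridge RNA in Escherichia coli cells.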

Sequence: AGTCATACTTGGGTTCTAACCTGTTGCCA (site AGTCATACTTG)
- recombinant barcode read abundance (log10): 0.355

Sequence: AGTCATACTTGGGTTCTAACCTGTTGCCA (site GACGTGTCTAC)
- recombinant barcode read abundance (log10): 0.0524

Sequence: AGTCCTTCTTGGGTTCTAACCTGTTGCAT (site AGTCCTTCTAT)
- recombinant barcode read abundance (log10): 0.878

Sequence: AGTCCTTCTTGGGTTCTAACCTGTTGCAT (site CGTCCTTCTAG)
- recombinant barcode read abundance (log10): 0.0721

Sequence: AGTCTACCTTGGGTTCTAACCTGTTGCCT (site AGTCTACCTAG)
- recombinant barcode read abundance (log10): 1.23

Sequence: AGTCTACCTTGGGTTCTAACCTGTTGCCT (site CGTCTACCTAG)
- recombinant barcode read abundance (log10): 0.0985

Sequence: AGTCTAGCTTGGGTTCTAACCTGTTGCCG (site AGTCTAGCTAG)
- recombinant barcode read abundance (log10): 0.083

Sequence: AGTCTAGCTTGGGTTCTAACCTGTTGCCG (site AGTCTAGCTCG)
- recombinant barcode read abundance (log10): 0.67

Sequence: AGTCTAGCTTGGGTTCTAACCTGTTGCCG (site AGTCTAGCTGG)
- recombinant barcode read abundance (log10): 0.0274

Sequence: AGTCTAGCTTGGGTTCTAACCTGTTGCCG (site AGTCTAGCTTG)
- recombinant barcode read abundance (log10): 0.641

Sequence: AGTCTCCCTTGGGTTCTAACCTGTTGCCT (site AGACTCCCTAG)
- recombinant barcode read abundance (log10): 0.372

Sequence: AGTCTCCCTTGGGTTCTAACCTGTTGCCT (site AGCCTCCCTAG)
- recombinant barcode read abundance (log10): 0.0404

Sequence: AGTCTCCCTTGGGTTCTAACCTGTTGCCT (site AGGCTCCCTAG)
- recombinant barcode read abundance (log10): 0.0232

Sequence: AGTCTCCCTTGGGTTCTAACCTGTTGCCT (site AGTCTCCCTAG)
- recombinant barcode read abundance (log10): 1.56

Sequence: AGTCTCTCTTGGGTTCTAACCTGTTGCCG (site AGTCTCTCTCG)
- recombinant barcode read abundance (log10): 0.357

Sequence: AGTCTCTCTTGGGTTCTAACCTGTTGCCG (site AGTCTCTCTTA)
- recombinant barcode read abundance (log10): 0.0569

Sequence: AGTGCGGCTTGGGTTCTAACCTGTTGCCT (site AGTGCGGCTAG)
- recombinant barcode read abundance (log10): 0.685

Sequence: AGTGCGGCTTGGGTTCTAACCTGTTGCCT (site CGTGCGGCTAG)
- recombinant barcode read abundance (log10): 0.231

Sequence: AGTGCGGCTTGGGTTCTAACCTGTTGCCT (site GGTGCGGCTAG)
- recombinant barcode read abundance (log10): 0.0363

Sequence: AGTGCGGCTTGGGTTCTAACCTGTTGCCT (site TGTGCGGCTAG)
- recombinant barcode read abundance (log10): 0.143

Sequence: AGTTAACCTTGGGTTCTAACCTGTTGCGG (site ACTTGACCTCC)
- recombinant barcode read abundance (log10): 0.0373

Sequence: AGTTAACCTTGGGTTCTAACCTGTTGCGG (site AGTTAACCTCC)
- recombinant barcode read abundance (log10): 1.97

Sequence: AGTTACACTTGGGTTCTAACCTGTTGCCT (site AGTTACACTAG)
- recombinant barcode read abundance (log10): 0.637

Sequence: AGTTACACTTGGGTTCTAACCTGTTGCCT (site AGTTCCACTAG)
- recombinant barcode read abundance (log10): 0.0139

Sequence: AGTTACACTTGGGTTCTAACCTGTTGCCT (site AGTTGCACTAG)
- recombinant barcode read abundance (log10): 0.0991

Sequence: AGTTACACTTGGGTTCTAACCTGTTGCCT (site AGTTTCACTAG)
- recombinant barcode read abundance (log10): 0.0317

Sequence: AGTTAGCCTTGGGTTCTAACCTGTTGCCT (site AGTAAGCCTAG)
- recombinant barcode read abundance (log10): 0.107

Sequence: AGTTAGCCTTGGGTTCTAACCTGTTGCCT (site AGTCAGCCTAG)
- recombinant barcode read abundance (log10): 0.161

Sequence: AGTTAGCCTTGGGTTCTAACCTGTTGCCT (site AGTGAGCCTAG)
- recombinant barcode read abundance (log10): 0.114

Sequence: AGTTAGCCTTGGGTTCTAACCTGTTGCCT (site AGTTAGCCTAG)
- recombinant barcode read abundance (log10): 0.361

Sequence: AGTTAGTCTTGGGTTCTAACCTGTTGCAG (site AGTTAGTCTCT)
- recombinant barcode read abundance (log10): 1.48

Sequence: AGTTAGTCTTGGGTTCTAACCTGTTGCAG (site GTACGCACTAG)
- recombinant barcode read abundance (log10): 0.0583

Sequence: AGTTCACCTTGGGTTCTAACCTGTTGCTA (site AGTTCACCTTA)
- recombinant barcode read abundance (log10): 0.0738

Sequence: AGTTCACCTTGGGTTCTAACCTGTTGCTA (site GAGGGCTCTCC)
- recombinant barcode read abundance (log10): 0.314

Sequence: AGTTCATCTTGGGTTCTAACCTGTTGCAT (site AGTTCATCTAT)
- recombinant barcode read abundance (log10): 0.0989

Sequence: AGTTCATCTTGGGTTCTAACCTGTTGCAT (site CTAGATGCTTC)
- recombinant barcode read abundance (log10): 0

Sequence: AGTTGCCCTTGGGTTCTAACCTGTTGCCT (site AATTGCCCTAG)
- recombinant barcode read abundance (log10): 0.738

Sequence: AGTTGCCCTTGGGTTCTAACCTGTTGCCT (site ACTTGCCCTAG)
- recombinant barcode read abundance (log10): 0.068

Sequence: AGTTGCCCTTGGGTTCTAACCTGTTGCCT (site AGTTGCCCTAG)
- recombinant barcode read abundance (log10): 0.457

Sequence: AGTTGCCCTTGGGTTCTAACCTGTTGCCT (site ATTTGCCCTAG)
- recombinant barcode read abundance (log10): 0.0653

Sequence: AGTTGGCCTTGGGTTCTAACCTGTTGCGA (site AGTTGGCCTTC)
- recombinant barcode read abundance (log10): 0.45

Sequence: AGTTGGCCTTGGGTTCTAACCTGTTGCGA (site CCACCTTCTAG)
- recombinant barcode read abundance (log10): 0.123

Sequence: AGTTGTCCTTGGGTTCTAACCTGTTGCCT (site AGTTGTCCTAA)
- recombinant barcode read abundance (log10): 0.174

Sequence: AGTTGTCCTTGGGTTCTAACCTGTTGCCT (site AGTTGTCCTAC)
- recombinant barcode read abundance (log10): 0.0671

Sequence: AGTTGTCCTTGGGTTCTAACCTGTTGCCT (site AGTTGTCCTAG)
- recombinant barcode read abundance (log10): 0.132

Sequence: AGTTGTCCTTGGGTTCTAACCTGTTGCCT (site AGTTGTCCTAT)
- recombinant barcode read abundance (log10): 0.296

Sequence: ATAACTACTTGGGTTCTAACCTGTTGCTT (site ATAACTACTAA)
- recombinant barcode read abundance (log10): 0.216

Sequence: ATAACTACTTGGGTTCTAACCTGTTGCTT (site TACCTACCTTC)
- recombinant barcode read abundance (log10): 0.0357

Sequence: ATAAGCCCTTGGGTTCTAACCTGTTGCCT (site AAAAGCCCTAG)
- recombinant barcode read abundance (log10): 0.176

Sequence: ATAAGCCCTTGGGTTCTAACCTGTTGCCT (site ACAAGCCCTAG)
- recombinant barcode read abundance (log10): 0.212

Sequence: ATAAGCCCTTGGGTTCTAACCTGTTGCCT (site AGAAGCCCTAG)
- recombinant barcode read abundance (log10): 0.166

Sequence: ATAAGCCCTTGGGTTCTAACCTGTTGCCT (site ATAAGCCCTAG)
- recombinant barcode read abundance (log10): 1.36

Sequence: ATAAGCTCTTGGGTTCTAACCTGTTGCCT (site ATAAGCTCTAG)
- recombinant barcode read abundance (log10): 2.3

Sequence: ATAAGCTCTTGGGTTCTAACCTGTTGCCT (site CTAAGCTCTAG)
- recombinant barcode read abundance (log10): 0.289

Sequence: ATAAGCTCTTGGGTTCTAACCTGTTGCCT (site GTAAGCTCTAG)
- recombinant barcode read abundance (log10): 0.119

Sequence: ATAAGCTCTTGGGTTCTAACCTGTTGCCT (site TTAAGCTCTAG)
- recombinant barcode read abundance (log10): 0.766

Sequence: ATAAGGACTTGGGTTCTAACCTGTTGCTA (site ATAAGGACTTA)
- recombinant barcode read abundance (log10): 2.01

Sequence: ATAAGGACTTGGGTTCTAACCTGTTGCTA (site ATACGGACTTA)
- recombinant barcode read abundance (log10): 0.111

Sequence: ATAAGGACTTGGGTTCTAACCTGTTGCTA (site ATAGGGACTTA)
- recombinant barcode read abundance (log10): 1.26

Sequence: ATAAGGACTTGGGTTCTAACCTGTTGCTA (site ATATGGACTTA)
- recombinant barcode read abundance (log10): 0.52

Sequence: ATAAGGGCTTGGGTTCTAACCTGTTGCCT (site ATAAATGCTAG)
- recombinant barcode read abundance (log10): 0.183

Sequence: ATAAGGGCTTGGGTTCTAACCTGTTGCCT (site ATAAGGGCTAG)
- recombinant barcode read abundance (log10): 0.652

Sequence: ATAAGTCCTTGGGTTCTAACCTGTTGCCA (site ATAAGTCCTTG)
- recombinant barcode read abundance (log10): 0.582

Sequence: ATAAGTCCTTGGGTTCTAACCTGTTGCCA (site GTAAGTACTTG)
- recombinant barcode read abundance (log10): 0.0629

Sequence: ATACGTACTTGGGTTCTAACCTGTTGCCT (site ATACGTACTAG)
- recombinant barcode read abundance (log10): 1.74

Sequence: ATACGTACTTGGGTTCTAACCTGTTGCCT (site CTACGTACTAG)
- recombinant barcode read abundance (log10): 0.0799

Sequence: ATACGTACTTGGGTTCTAACCTGTTGCCT (site GTACGTACTAG)
- recombinant barcode read abundance (log10): 0.067

Sequence: ATACGTACTTGGGTTCTAACCTGTTGCCT (site TTACGTACTAG)
- recombinant barcode read abundance (log10): 0.0363

Sequence: ATACTACCTTGGGTTCTAACCTGTTGCGG (site ATACTACCTCC)
- recombinant barcode read abundance (log10): 1.4

Sequence: ATACTACCTTGGGTTCTAACCTGTTGCGG (site ATCCCACCTCC)
- recombinant barcode read abundance (log10): 0.119

Sequence: ATATACTCTTGGGTTCTAACCTGTTGCCG (site ATATACTCTCG)
- recombinant barcode read abundance (log10): 2.38

Sequence: ATATACTCTTGGGTTCTAACCTGTTGCCG (site ATCTACTCTAG)
- recombinant barcode read abundance (log10): 0.0335

Sequence: ATATGAGCTTGGGTTCTAACCTGTTGCCG (site ATATGAGCTCG)
- recombinant barcode read abundance (log10): 0.307

Sequence: ATATGAGCTTGGGTTCTAACCTGTTGCCG (site ATATGCGCTCG)
- recombinant barcode read abundance (log10): 0.175

Sequence: ATATGAGCTTGGGTTCTAACCTGTTGCCG (site ATATGGGCTCG)
- recombinant barcode read abundance (log10): 0.0468

Sequence: ATATGAGCTTGGGTTCTAACCTGTTGCCG (site ATATGTGCTCG)
- recombinant barcode read abundance (log10): 0.167

Sequence: ATATGAGCTTGGGTTCTAACCTGTTGCTT (site ACATGACCTAA)
- recombinant barcode read abundance (log10): 0.177

Sequence: ATATGAGCTTGGGTTCTAACCTGTTGCTT (site ATATGAGCTAA)
- recombinant barcode read abundance (log10): 0.283

Sequence: ATCAACCCTTGGGTTCTAACCTGTTGCCA (site ATCAACCCTTG)
- recombinant barcode read abundance (log10): 1.04

Sequence: ATCAACCCTTGGGTTCTAACCTGTTGCCA (site TCGTCTACTGA)
- recombinant barcode read abundance (log10): 0.375

Sequence: ATCACAGCTTGGGTTCTAACCTGTTGCCT (site ATCAAAGCTAG)
- recombinant barcode read abundance (log10): 0.136

Sequence: ATCACAGCTTGGGTTCTAACCTGTTGCCT (site ATCACAGCTAG)
- recombinant barcode read abundance (log10): 0.736

Sequence: ATCACGCCTTGGGTTCTAACCTGTTGCCT (site ACCACGCCTAG)
- recombinant barcode read abundance (log10): 0.128

Sequence: ATCACGCCTTGGGTTCTAACCTGTTGCCT (site ATCACGCCTAG)
- recombinant barcode read abundance (log10): 0.544

Sequence: ATCAGGTCTTGGGTTCTAACCTGTTGCCT (site AACAGGTCTAG)
- recombinant barcode read abundance (log10): 0.299

Sequence: ATCAGGTCTTGGGTTCTAACCTGTTGCCT (site ACCAGGTCTAG)
- recombinant barcode read abundance (log10): 0.18

Reference: the supplement of paper PMC11208160
